Data on 18 molecules can be found in patent publication US7816346B2, “Analogs of ansamycin and pharmaceutical compositions thereof” (priority 2006, dated 2010).

Like-named read-outs stand apart in the source and are kept apart here.

Data set [1] has as its system MX-1 (human breast carcinoma) cells. The data set can be described thus: in vitro growth inhibition, cytotoxicity assay (Promega CellTiter Blue Cell Viability Assay). The conditions noted are these: read-out: IC50, μM MX-1. In kind it is cell-based. As for the experimental part:
After 24 hrs., cells were exposed to various concentrations of compound in DMSO and cultured for another 72 hrs. 100 ul of media were removed and 20 ul of Promega CellTiter Blue reagent were added to each well and shaken to mix. […] The fluorescence produced is proportional to the number of viable cells. After plotting fluorescence produced against drug concentration, the IC50 was calculated as the […] of the resulting non-linear regression.
A general note: The colour change of resazurin is a common sign of viable cells or microbes.

For data set [2] the following is noted: cited from earlier work.
Data set [3] has as its system HSV-1. As to conditions: cited from earlier work.
In data set [4] the test system is cellular growth. As to conditions: read-out: concentration that inhibited cellular growth 50% in comparison with untreated controls; cited from earlier work.
[5] abbreviates: MX-1 cells, 72 hrs exposure, CellTiter Blue.

Take “18-N-(4-Cyano)benzamide-21-hydroxylgeldanamycin [Compound 7]”: the IC50 in data set [1] (setting [5]) was determined as 0.13 µM.

As for “18-N-(4-Fluoro)benzamide-21-hydroxylgeldanamycin [Compound 8]”, in data set [1] (setting [5]), the IC50 was 2 µM.

“18-N-(4-Phenyl)benzamide-21-hydroxylgeldanamycin [Compound 6]”: the IC50 in data set [1] (setting [5]) was determined as 0.081 µM.

Consider `C=CCNC1=C2C[C@@H](C)C[C@H](OC)[C@H](O)[C@@H](C)/C=C(\C)[C@H](OC(N)=O)[C@@H](OC)/C=C\C=C(/C)C(=O)NC(=CC1=O)C2=O` [Compound 17-AAG, 17-allylaminogeldanamycin, reference compound], for which the IC50 in data set [1] (Homo sapiens, MX1, 72 h) amounted to 1.7 µM. The water solubility entry in data set [2] was “limited aqueous solubility”.

Consider “18-N-Lauramide-21-hydroxylgeldanamycin [Compound 2]”, for which the IC50 in data set [1] (setting [5]) is 1.3 µM.

As to “18-N-Benzylcarbamate-21-hydroxylgeldanamycin [Compound 16]”, the IC50 in data set [1] (setting [5]) was 0.088 µM.

For the molecule `C=CC(=O)Nc1cc2c(O)c(c1OC)CC(C)CC(OC)C(O)C(C)C=C(C)C(OC(N)=O)C(OC)C=CC=C(C)C(=O)N2` (centres unmarked) [Compound 12, 18-N-Acrylamide-21-hydroxylgeldanamycin], the IC50 in data set [1] (setting [5]) was found to be 15.3 µM.

Take “18-N-(4-Nitro)benzamide-21-hydroxylgeldanamycin [Compound 3]”: the IC50 in data set [1] (setting [5]) came out at 0.42 µM.

“18-N-(3,4-Dichloro)benzamide-21-methoxylgeldanamycin [Compound 70]”: in data set [1] (setting [5]), the IC50 came out at 12.4 µM.

For “18-N-(2-Trifluoro)benzamide-21-hydroxylgeldanamycin [Compound 4]”, the IC50 in data set [1] (setting [5]) was found to be 0.68 µM.

Regarding `COC1=C2C[C@@H](C)C[C@H](OC)[C@H](O)[C@@H](C)/C=C(\C)[C@H](OC(N)=O)[C@@H](OC)/C=C\C=C(/C)C(=O)NC(=CC1=O)C2=O` [GA, Geldanamycin], the IC50 in data set [1] (Homo sapiens, MX1, MX-1 cells, 72 hrs exposure, CellTiter Blue) is 0.5 µM; in data set [3] (in vitro, read-out: 50% inhibitory concentration, HSV-1 replication in vitro) it was 93 nM; in data set [4] it was 350000 nM. In addition, in data set [3] (cellular growth vs HSV-1 replication), the therapeutic index result is given as “over 3700”. Moreover, the water solubility entry in data set [2] is “poor water solubility”.

Take “18-N-(2-Furo)amide-21-hydroxylgeldanamycin [Compound 10]”: in data set [1] (setting [5]), the IC50 was found to be 7.2 µM.

For the molecule “18-N-Benzamide-21-hydroxylgeldanamycin [Compound 1]”, in data set [1] (setting [5]), the IC50 stood at 1.9 µM.

For “18-N-Benzylurea-21-hydroxylgeldanamycin [Compound 49]”, the IC50 in data set [1] (setting [5]) turned out to be 2.4 µM.

Take `COc1c(NS(=O)(=O)c2ccc(C(F)(F)F)cc2)cc2c(O)c1CC(C)CC(OC)C(O)C(C)C=C(C)C(OC(N)=O)C(OC)C=CC=C(C)C(=O)N2` (centres unmarked) [Compound 29, 18-N-(4-trifluoromethylbenzene)sulfamide-21-hydroxylgeldanamycin]: in data set [1] (setting [5]), the IC50 is 0.078 µM.

For “18-N-iso-Nicotinamide-21-hydroxylgeldanamycin [Compound 11]”, in data set [1] (setting [5]), the IC50 worked out at 0.1 µM.

Regarding “18-N-(3,4-Dichloro)benzamide-21-hydroxylgeldanamycin [Compound 9]”, the IC50 in data set [1] (setting [5]) is 0.8 µM.

For “18-N-(4-Methoxy)benzamide-21-hydroxylgeldanamycin [Compound 5]”, the IC50 in data set [1] (setting [5]) came out at 0.29 µM.
